# Reference: patent US20260184663A1, “INDENE COMPOUNDS, PHARMACEUTICAL COMPOSITIONS THEREOF, AND THEIR THERAPEUTIC APPLICATIONS” (NucMito Pharmaceuticals co. Ltd., priority 2022, published 2026)
# Columns and labels:
# Type in all cases: cell-based
# [1] = system: alpha-smooth muscle actin (α-SMA); experiment: Inhibition of TGF-β induced expression of alpha-smooth muscle actin (α-SMA) in CFSC cells (western blot); conditions: compound at 10 μM, TGF-β (10 ng/mL), 24 hours, band intensity vs TGF-β only
# Description: The ability of a compound to inhabit the TGF-β induced expression of alpha-smooth muscle actin (α-SMA) was evaluated in CCl4-treated fat storing (CFSC) cells. α-SMA is considered as a reliable marker of hepatic stellate cell activation and a key biomarker for liver fibrosis.
# CFSC cells maintained in a DMEM medium supplemented with 10% fetal bovine serum were seeded to 12-well culture dishes and grown to a confluence of 60-70% the next day. Culture was changed to a serum-free DMEM medium, and the cells were treated with a compound at 10 μM in the presence of TGF-β (10 ng/mL). The cells were incubated for another 24 hours. All culture was maintained at 37° C. in 5% carbon dioxide.
# An NP-40 lysate solution (50 mM Tris (pH 7.4), 150 mM NaCl, 1% NP-40) with EDTA free cocktail added was used to lyse the cells on ice for 30 min. The lysate was collected and centrifuged at 4° C. for 10 min at 12,000 rpm. The pellet was discarded and the supernatant was transferred to a new tube. Cell lysates were loaded with 5× loading buffer and boiled for 10 min, resolved by 10% SDS-polyacrylamide gel electrophoresis (SDS-PAGE), and transferred to PVDF membrane. The membrane was blocked with 5% skim milk in Tris-buffered saline and TWEEN® 20 (TBST; 10 mM Tris-HCl (pH 8.0), 150 mM NaCl, 0.1% TWEEN® 20) for 1 h at room temperature and then incubated with α-SMA and β-actin antibodies overnight at 4° C. After washing twice with TBST, the membrane was probed with a horseradish […] anti-immunoglobulin (1:5000 dilution) for 1 h at room temperature. After two subsequent rinses in TBST, immunoreactive products were reacted with ECL and visualized by a UVP CHEMSTUDIO™ imaging system. The western blotting bands are quantitated using an ImageJ software. The percentage of inhibition was obtained by calculating the percentage decrease in the band intensity compared to the one treated with TGF-β only.
# The results are summarized in Table 1, where A represents a value no less of 80% inhibition, B represents a value less than […] but no less than […], C represents a value less than 50% but no less than 30% inhibition, and D represents a value less than 30% inhibition with a compound at 10 μM.
# [2] = system: MDA-MB-231 (breast cancer); experiment: Antiproliferative activity (CCK-8 cell viability), MDA-MB-231; conditions: Homo sapiens, 72 h, read-out: Antiproliferative activity in cancerous cells, MDA-MB-231 (inhibition of cell growth); for inhibition at 3.3 µM: Compound concentration: 3.3 μM; for inhibition at 10 µM: Compound concentration: 10 μM
# How it was run: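 MDA-MB-231 breast cancer cells, grown in DMEM with 10% FBS, were plated in 96-well plates at 2,000-5,000 cells/well. Once attached, they were exposed to compound and incubated at 37° C. for 72 h. Viability was then measured with CCK-8 (10 μL per well, 4 h at 37° C.) by absorbance at 450 nm, relative to DMSO vehicle wells.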
# [3] = system: HepG2 (liver cancer); experiment: Antiproliferative activity (CCK-8 cell viability), HepG2; conditions: Homo sapiens, 72 h, read-out: Antiproliferative activity in cancerous cells, HepG2 (inhibition of cell growth); for inhibition at 3.3 µM: Compound concentration: 3.3 μM; for inhibition at 10 µM: Compound concentration: 10 μM
# How it was run: (§1)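 Cells grown in DMEM (HepG2, SW480), MEM (HeLa) or F-12K (A549), each with 10% FBS, then exposed to compound at 3.3, 10 or 30 μM for 72 h at 37 °C. CCK-8 absorbance at 450 nm; viability expressed as percent of DMSO-treated cells, graded as growth inhibition bands.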
# [4] = system: SW480 (colon cancer); experiment: Antiproliferative activity (CCK-8 cell viability), SW480; conditions: Homo sapiens, 72 h, read-out: Antiproliferative activity in cancerous cells, SW480 (inhibition of cell growth); for inhibition at 3.3 µM: Compound concentration: 3.3 μM; for inhibition at 10 µM: Compound concentration: 10 μM
# How it was run: as §1
# [5] = system: B16F10 (malignant melanoma); experiment: Antiproliferative activity (CCK-8 cell viability), B16F10; conditions: Mus musculus, 72 h, read-out: Antiproliferative activity in cancerous cells, B16F10 (inhibition of cell growth); for inhibition at 3.3 µM: B16-F10, Compound concentration: 3.3 μM; for inhibition at 10 µM: B16-F10, Compound concentration: 10 μM
# How it was run: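 B16F10 melanoma cells grown in DMEM with 10% FBS were plated in 96-well plates at 2,000-5,000 cells/well. After attachment they were exposed to compound in medium for 72 h at 37° C. CCK-8 solution (10 μL) was then added, and after 4 h at 37° C absorbance was read at 450 nm.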
# [6] = system: A431 (epidermoid carcinoma); experiment: Antiproliferative activity (CCK-8 cell viability), A431; conditions: Homo sapiens, 72 h, read-out: Antiproliferative activity in cancerous cells, A431 (inhibition of cell growth); for inhibition at 3.3 µM: A-431, Compound concentration: 3.3 μM; for inhibition at 10 µM: A-431, Compound concentration: 10 μM
# How it was run: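 A431 epidermoid carcinoma cells grown in DMEM with 10% FBS were plated at 2,000-5,000 cells/well in 96-well plates. After attachment they were exposed to compound at 3.3 μM, 10 μM, or 30 μM for 72 h at 37° C. Viability was then assessed by CCK-8 against DMSO vehicle-treated wells.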
# [7] = system: A549 (lung adenocarcinoma); experiment: Antiproliferative activity (CCK-8 cell viability), A549; conditions: Homo sapiens, 72 h, read-out: Antiproliferative activity in cancerous cells, A549 (inhibition of cell growth); for inhibition at 3.3 µM: Compound concentration: 3.3 μM; for inhibition at 10 µM: Compound concentration: 10 μM
# How it was run: as §1
# [8] = system: HeLa (cervical cancer); experiment: Antiproliferative activity (CCK-8 cell viability), HeLa; conditions: Homo sapiens, 72 h, read-out: Antiproliferative activity in cancerous cells, HELA (inhibition of cell growth); for inhibition at 3.3 µM: Compound concentration: 3.3 μM; for inhibition at 10 µM: Compound concentration: 10 μM
# How it was run: as §1
SMILES,inhibition at 10 µM [1] [%],inhibition at 3.3 µM [2] [%],inhibition at 10 µM [2] [%],inhibition at 3.3 µM [3] [%],inhibition at 10 µM [3] [%],inhibition at 3.3 µM [4] [%],inhibition at 10 µM [4] [%],inhibition at 3.3 µM [5] [%],inhibition at 10 µM [5] [%],inhibition at 3.3 µM [6] [%],inhibition at 10 µM [6] [%],inhibition at 3.3 µM [7] [%],inhibition at 10 µM [7] [%],inhibition at 3.3 µM [8] [%],inhibition at 10 µM [8] [%]
"O=C(O)CC1=C(Cc2ccc(Oc3ccc(F)cc3)cc2)/C(=C/c2cccc(COc3ccccc3)c2)c2ccc(F)cc21 [A101, (Z)-2-(5-Fluoro-2-(4-(4-fluorophenoxy)benzyl)-1-(3-(phenoxymethyl)-benzylidene)-1H-inden-3-yl)acetic acid]",> 80,≥ 50,≥ 50,≥ 50,≥ 50,≥ 50,≥ 50,≥ 50,≥ 50,≥ 50,≥ 50,≥ 50,≥ 50,≥ 50,≥ 50
"O=C(O)CC1=C(Cc2ccc(Oc3ccc(F)cc3)cc2)/C(=C/c2ccc(N3CCOCC3)cc2)c2ccc(F)cc21 [A102, (Z)-2-(5-Fluoro-2-(4-(4-fluorophenoxy)benzyl)-1-(4-morpholinobenzylidene)-1H-inden-3-yl)acetic acid]",> 80,≥ 50,≥ 50,≥ 50,≥ 50,≥ 50,≥ 50,≥ 50,≥ 50,≥ 50,≥ 50,≥ 50,≥ 50,≥ 50,≥ 50
"CC(C)c1ccc(/C=C2/C(Cc3ccc(Oc4ccc(F)cc4)cc3)=C(CC(=O)O)c3cc(F)ccc32)cc1 [A103, (Z)-2-(5-Fluoro-2-(4-(4-fluorophenoxy)benzyl)-1-(4-isopropylbenzylidene)-1H-inden-3-yl)acetic acid]",> 80,≥ 50,≥ 50,≥ 50,≥ 50,≥ 50,≥ 50,≥ 50,≥ 50,≥ 50,≥ 50,≥ 50,≥ 50,≥ 50,≥ 50
"CCc1ccc(/C=C2/C(Cc3ccc(Oc4ccc(F)cc4)cc3)=C(CC(=O)O)c3cc(F)ccc32)cc1 [A104, (Z)-2-(1-(4-Ethylbenzylidene)-5-fluoro-2-(4-(4-fluorophenoxy)benzyl)-1H-inden-3-yl)acetic acid]",> 80,≥ 50,≥ 50,≥ 50,≥ 50,≥ 50,≥ 50,≥ 50,≥ 50,≥ 50,≥ 50,≥ 50,≥ 50,≥ 50,≥ 50
